Results on 11 compounds are retold here after article PMC7968037 (RSC Advances, 2021).

Read-outs that look alike come from different tables or passages of the source.

Data set [1] is described as follows: in vitro. As to conditions: human, Cytotoxicity [log(EC50 [μM]) ± SEM], cellular necrosis, MCF-10A, 72 h exposure, 0.32–320 μM; values are logarithms.
The nature of data set [2]: in vitro. Conditions: human, Cytotoxicity [log(EC50 [μM]) ± SEM], cellular necrosis, SK-BR-3, 72 h exposure, 0.32–320 μM; values are logarithms.
A short description of data set [3]: in vitro. Conditions: human, Cytotoxicity [log(EC50 [μM]) ± SEM], cellular necrosis, MDA-MB-231, 72 h exposure, 0.32–320 μM; values are logarithms.
Data set [4] concerns MDA-MB-231 (triple negative) breast cancer cells. Put plainly: cells. The data set is classed as cell-based. As to conditions: Homo sapiens, read-out: Growth inhibition [log(IC50 [μM]) ± SEM] (converted).
Data set [5] deals with SK-BR-3 (ER−/PR−/HER2+) breast cancer cells. Description: cells. The class given is cell-based. As to conditions: Homo sapiens, read-out: Growth inhibition [log(IC50 [μM]) ± SEM] (converted).
A short description of data set [6]: in vitro. As to conditions: human, Cytotoxicity [log(EC50 [μM]) ± SEM], cellular necrosis, MCF-7, 72 h exposure, 0.32–320 μM; values are logarithms.
The test system of data set [7] is benign MCF-10A breast cells. Put plainly: cells. The data set is classed as cell-based. As to conditions: for Change of cell growth compared to vehicle-treated cells: tested 0.32–320 μM; for IC50: Homo sapiens, read-out: Growth inhibition [log(IC50 [μM]) ± SEM] (converted).
In data set [8] the test system is MCF-7 (ER+/PR+/HER2−) breast cancer cells. Description: cells. The data set is classed as cell-based. Conditions: for IC50: Homo sapiens, read-out: Growth inhibition [log(IC50 [μM]) ± SEM] (converted); for Early inhibition of growth compared to vehicle-treated cells: MCF-7, 24 h, tested 0.32–320 μM, Fig. 4A.
The test system of data set [9] is benign MCF-10A breast cells. Conditions: tested 0.32–320 μM; for Concentrations that exerted significant cytotoxicity compared to vehicle: 24 h, p ≤ 0.05, Fig. 5D; for Concentrations that exerted significant toxicity compared to vehicle: 72 h, p ≤ 0.05, Fig. 5D′.

Consider `CC/C(=C(\c1ccccc1)c1ccc(OCCN(C)C)cc1)c1ccccc1` [Tamoxifen, reference compound], for which the values for the EC50 in the data set “in vitro [1]”, in “in vitro [2]” and in “in vitro [3]” were > 316 µM, 0.331 µM and 30.9 µM, respectively.

On to `C=C(C[C@H](N)C(=O)O)C(=O)N1CCCCC1` [Compound 8, (S)-2-Amino-4-(piperidine-1-carbonyl)pent-4-enoic acid], for which the EC50 (usually the concentration that produces a half-maximal response) is > 316 µM in the data set “in vitro [1]”, > 316 µM in “in vitro [2]”, 200 µM in “in vitro [6]” and > 316 µM in “in vitro [3]”. Besides, the half-inhibitory concentration (IC50) (as a rule, the concentration at which inhibition is half-maximal) was > 320 µM in [4] (MDA-MB-231, 24 h); > 320 µM in data set [4] (MDA-MB-231, 72 h); 135 µM in [5] (SK-BR-3, 24 h); 0.617 µM in [5] (SK-BR-3, 72 h); > 316 µM in data set [7] (24 h); > 316 µM in [7] (72 h). Also, the concentration for half-maximal inhibition (IC50) in data set [8] (MCF7, 24 h) was > 320 µM; in data set [8] (MCF7, 72 h), > 320 µM. Further, the “Change of cell growth compared to vehicle-treated cells” value (“Change of cell growth” below) in data set [7] (72 h, Fig. 4D′) is “significant increases”.

On to `C=C(C[C@H](N)C(=O)O)C(=O)NCc1ccccc1` [Compound 4, (S)-2-Amino-4-(benzylcarbamoyl)pent-4-enoic acid], for which the EC50 in “in vitro [1]” is > 316 µM; in the data set “in vitro [2]” it was > 316 µM; in the data set “in vitro [6]” it was 219 µM; in “in vitro [3]”, > 316 µM. Besides, the IC50 in [4] (MDA-MB-231, 24 h) is > 320 µM; in [4] (MDA-MB-231, 72 h), > 320 µM; in [5] (SK-BR-3, 24 h), 74.1 µM; in data set [5] (SK-BR-3, 72 h) it was 0.562 µM; in data set [7] (24 h), > 316 µM; in data set [7] (72 h), > 316 µM. For the same compound, the half-inhibitory concentration (IC50) in data set [8] (MCF7, 24 h) was > 320 µM; in data set [8] (MCF7, 72 h), 195 µM.

In the case of `C=C(C[C@H](N)C(=O)O)C(=O)NCc1ccc([N+](=O)[O-])cc1` [Compound 6, (S)-2-Amino-4-((4-nitrobenzyl)carbamoyl)pent-4-enoic acid], the concentration for a half-maximal effect (EC50) is > 316 µM in “in vitro [1]”, 0.437 µM in the data set “in vitro [2]”, 20.4 µM in “in vitro [6]” and 269 µM in “in vitro [3]”. For the same compound, the IC50 was 219 µM in data set [4] (MDA-MB-231, 24 h); > 320 µM in [4] (MDA-MB-231, 72 h); 12.9 µM in data set [5] (SK-BR-3, 24 h); 3.16 µM in [5] (SK-BR-3, 72 h); > 316 µM in data set [7] (24 h); > 316 µM in data set [7] (72 h). Moreover, the 50% inhibitory concentration (IC50) was > 320 µM in data set [8] (MCF7, 24 h) and > 320 µM in data set [8] (MCF7, 72 h). Also, the “Change of cell growth” value in data set [7] (24 h, Fig. 4D) is listed as “significant increases”.

For the compound `C=C(C[C@H](N)C(=O)O)C(=O)NCc1ccc(F)cc1` [Compound 5, (S)-2-Amino-4-((4-fluorobenzyl)carbamoyl)pent-4-enoic acid], the EC50 in “in vitro [1]” was > 316 µM; in the data set “in vitro [2]”, 0.389 µM; in “in vitro [6]” it was 55 µM; in “in vitro [3]” it was 263 µM. Further, the “Concentrations that exerted significant cytotoxicity compared to vehicle” value in [9] is 320 µM. Also, the “Concentrations that exerted significant toxicity compared to vehicle” value in [9] is 320 µM. For the same compound, the IC50 was > 320 µM in [4] (MDA-MB-231, 24 h); > 320 µM in data set [4] (MDA-MB-231, 72 h); 3.89 µM in [5] (SK-BR-3, 24 h); 4.47 µM in data set [5] (SK-BR-3, 72 h); > 316 µM in data set [7] (24 h); > 316 µM in data set [7] (72 h). The IC50 in data set [8] (MCF7, 24 h) was > 320 µM; in data set [8] (MCF7, 72 h), 85.1 µM. For the same compound, the “Change of cell growth” value in [7] (24 h, Fig. 4D) is “significant increases”; in [7] (72 h, Fig. 4D′) it was “significant increases”.

Turning to `C=C(C[C@H](N)C(=O)O)C(=O)Nc1ccccc1` [Compound 3, (S)-2-Amino-4-(phenylcarbamoyl)pent-4-enoic acid], the EC50 was > 316 µM in “in vitro [1]”, > 316 µM in “in vitro [2]”, 2.04 µM in the data set “in vitro [6]” and > 316 µM in the data set “in vitro [3]”. For the same compound, the concentration for half-maximal inhibition (IC50) in [4] (MDA-MB-231, 24 h) was > 320 µM; in [4] (MDA-MB-231, 72 h), > 320 µM; in data set [5] (SK-BR-3, 24 h), 37.2 µM; in data set [5] (SK-BR-3, 72 h), 1.66 µM; in [7] (24 h), > 316 µM; in data set [7] (72 h), > 316 µM. The IC50 in data set [8] (MCF7, 24 h) was > 320 µM; in data set [8] (MCF7, 72 h) it was 251 µM. In addition, the “Change of cell growth” value in data set [7] (72 h, Fig. 4D′) is given as “significant increases”.

With `O=C(c1cc(Cc2n[nH]c(=O)c3ccccc23)ccc1F)N1CCN(C(=O)C2CC2)CC1` [Olaparib, reference compound], the EC50 in the data set “in vitro [1]” was > 316 µM; in the data set “in vitro [2]”, 0.0603 µM; in “in vitro [6]” it was 26.3 µM; in the data set “in vitro [3]”, 97.7 µM. Moreover, in data set [9], the “Concentrations that exerted significant cytotoxicity compared to vehicle” value was 320 µM. For the same compound, in data set [9], the “Concentrations that exerted significant toxicity compared to vehicle” value stood at 320 µM. The 50% inhibitory concentration (IC50) in data set [4] (MDA-MB-231, 24 h) was 162 µM; in data set [4] (MDA-MB-231, 72 h), 155 µM; in [5] (SK-BR-3, 24 h), 1.62 µM; in data set [5] (SK-BR-3, 72 h) it was 1.05 µM; in [7] (24 h) it was > 316 µM; in [7] (72 h) it was > 316 µM. The IC50 in data set [8] (MCF7, 24 h) is > 316 µM; in data set [8] (MCF7, 72 h), 107 µM.

As for `C=C(C[C@H](N)C(=O)O)C(=O)Nc1ccc(Cl)cc1` [Compound 10, (S)-2-Amino-4-((4-chlorophenyl)carbamoyl)pent-4-enoic acid], the half-maximal effective concentration (EC50) in the data set “in vitro [1]” was > 316 µM; in “in vitro [2]” it was > 316 µM; in “in vitro [6]”, 93.3 µM; in “in vitro [3]”, > 316 µM. Also, in data set [9], the “Concentrations that exerted significant toxicity compared to vehicle” value was 100 µM. The IC50 in data set [4] (MDA-MB-231, 24 h) was > 320 µM; in data set [4] (MDA-MB-231, 72 h), > 320 µM; in data set [5] (SK-BR-3, 24 h) it was 79.4 µM; in data set [5] (SK-BR-3, 72 h), 3.98 µM; in data set [7] (24 h) it was > 316 µM; in [7] (72 h), > 316 µM. The IC50 in [8] (MCF7, 24 h) is > 320 µM; in data set [8] (MCF7, 72 h) it was 209 µM. In data set [7] (72 h, Fig. 4D′), the “Change of cell growth” value is listed as “significant increases”. For the same compound, the “Early inhibition of growth compared to vehicle-treated cells” value in [8] is “exerted early inhibition”.

Turning to `C=C(C[C@H](N)C(=O)O)C(N)=O` [Compound 1, (S)-2-Amino-4-carbamoylpent-4-enoic acid], the EC50 in “in vitro [1]” was > 316 µM; in the data set “in vitro [2]”, 2.04 µM; in the data set “in vitro [6]”, 2.95 µM; in “in vitro [3]”, > 316 µM. Further, the “Concentrations that exerted significant toxicity compared to vehicle” value in data set [9] came to 3.2 µM. In addition, the IC50 in [4] (MDA-MB-231, 24 h) is 141 µM; in [4] (MDA-MB-231, 72 h), > 320 µM; in data set [5] (SK-BR-3, 24 h), 7.94 µM; in [5] (SK-BR-3, 72 h), 11.2 µM; in [7] (24 h) it was > 316 µM; in data set [7] (72 h), > 316 µM. Besides, the concentration for half-maximal inhibition (IC50) in data set [8] (MCF7, 24 h) is > 320 µM; in data set [8] (MCF7, 72 h), > 320 µM. Moreover, the “Change of cell growth” value in data set [7] (24 h, Fig. 4D) was “significant increases”; in data set [7] (72 h, Fig. 4D′), “significant increases”.

Turning to `C=C(C[C@H](N)C(=O)O)C(=O)Nc1ccc(F)cc1` [Compound 9, (S)-2-Amino-4-((4-fluorophenyl)carbamoyl) pent-4-enoic acid], the half-maximal effective concentration (EC50) was > 316 µM in the data set “in vitro [1]”, 0.0603 µM in “in vitro [2]”, 2.29 µM in the data set “in vitro [6]” and > 316 µM in the data set “in vitro [3]”. In addition, the IC50 in [4] (MDA-MB-231, 24 h) is > 320 µM; in data set [4] (MDA-MB-231, 72 h), > 320 µM; in data set [5] (SK-BR-3, 24 h) it was 11.5 µM; in data set [5] (SK-BR-3, 72 h), 4.79 µM; in data set [7] (24 h) it was > 316 µM; in data set [7] (72 h), > 316 µM. Besides, the IC50 in [8] (MCF7, 24 h) was > 320 µM; in data set [8] (MCF7, 72 h) it was 75.9 µM.

`C=C(C[C@H](N)C(=O)O)C(=O)NC1CC1` [Compound 7, (S)-2-Amino-4-(cyclopropylcarbamoyl)pent-4-enoic acid]: the 50% effective concentration (EC50) in “in vitro [1]”, in the data set “in vitro [2]”, in the data set “in vitro [6]” and in “in vitro [3]” was > 316 µM each time. Besides, the IC50 in data set [4] (MDA-MB-231, 24 h) was > 320 µM; in data set [4] (MDA-MB-231, 72 h), > 320 µM; in data set [5] (SK-BR-3, 24 h) it was 316 µM; in [5] (SK-BR-3, 72 h) it was 0.575 µM; in data set [7] (24 h), > 316 µM; in data set [7] (72 h), > 316 µM. In addition, the concentration for half-maximal inhibition (IC50) in data set [8] (MCF7, 24 h) was 229 µM; in [8] (MCF7, 72 h), > 320 µM. In addition, the “Change of cell growth” value in [7] (72 h, Fig. 4D′) is listed as “significant increases”. The “Early inhibition of growth compared to vehicle-treated cells” value in data set [8] is listed as “exerted early inhibition”.
